Data published in US9586959B2, “Substituted tricyclic heterocycles as histamine 4 receptor inhibitors” (C&C RESEARCH LABORATORIES, priority 2011, dated 2017).
≈ marks a conversion by molar mass, not a printed value.

How the values were obtained:
[1] = Metabolic stability in mouse microsome; settings: mouse microsome 1 mg/mL, 5 μM compound, 1 mM NADPH
[2] = target: human histamine 4 receptor (hH4R) (Homo sapiens (Human), UniProt Q9H3N8); assay: Binding affinity of human histamine 4 receptor (hH4R), [3H] labeled histamine displacement; settings: hH4R-overexpressed cell membrane, [3H] histamine
Procedure: 20 μL of the prepared compound solution was transferred to each well of a 96-well plate, and then 20 μL of 100 μM histamine diluted with analysis buffer solution and 1% DMSO were transferred to each well to calculate non-specific binding and total binding degree. 25 μg of human histamine 4 receptor-overexpressed cell membrane (PerkinElmer) was diluted into 160 μL of analysis buffer solution and that was transferred to each well. [^3H] labeled histamine (PerkinElmer) was diluted into 1 μM concentration, 20 μL was allocated in each well, and then it was kept in a 27° C. incubator for 30 minutes. After the reaction, 200 μL of the mixture was transferred to a glass fiber plate in which 0.5% polyethylene amine was presoaked, and then non-binding [^3H] labeled histamine was removed in vacuum. After 4 times washing with 200 μL of washing buffer solution (50 mM tris-HCl, pH 7.4), the plate was dried in a 37° C. oven for 18 hours. 100 μL of betascint cocktail solution was added to each well, and after 1 hour CPM (count per minute) value of [^3H] labeled histamine was measured by using Wallac beta-counter TriLux.

[3] = target: human histamine 3 receptor (hH3R) (Homo sapiens (Human), UniProt Q9Y5N1); assay: Binding affinity of human histamine 3 receptor (hH3R), [3H] labeled N-α-methylhistamine displacement; settings: hH3R-overexpressed cell membrane, [3H] N-α-methylhistamine
Procedure: 10 μL of the prepared compound solution was allocated in each well of a 96-well plate, and then 10 μL of 200 μM (R)(−)-α-methylhistamine (RaMH) diluted with analysis buffer and 1% of DMSO were transferred to each well to calculate non-specific binding and total binding degree. 15 μg of human histamine 3 receptor-overexpressed cell membrane (PerkinElmer) was diluted with 180 μL of analysis buffer solution (50 mM tris-HCl pH 7.4, 5 mM MgCl2), and that was transferred to each well. [^3H] labeled Na-methylhistamine (PerkinElmer) was diluted into […], 10 μL of that was added to each well, and then it was kept in a 27° C. incubator for 30 minutes. After the reaction, 200 μL of the mixture was transferred to a glass fiber plate in which 0.5% polyethylene amine was presoaked, and then non-binding [^3H] labeled Na-methylhistamine was removed in vacuum. After 5 times washing with 200 μL of washing buffer solution (50 mM tris-HCl, pH 7.4), the plate was dried in a 37° C. oven for 18 hours. 100 μL of betascint cocktail solution was added to each well, and after 1 hour CPM of [^3H] labeled N-α-methylhistamine was measured by using Wallac beta-counter TriLux. The binding affinity (IC50) of the human histamine 3 receptor for the present invention was analyzed by an Excel program, and the results of analysis are shown in Table 2.

[4] = Metabolic stability in human microsome; settings: human microsome 1 mg/mL, 5 μM compound, 1 mM NADPH
[5] = Solubility in artificial gastrointestinal tract solution; assay type: physicochemical; settings: artificial gastrointestinal tract solution, thermodynamic from solid; for solubility at 1 h: fassgf or other biorelevant, first solution pH 1.2, 2 mg/mL sample, 37° C. 1 hour; for solubility at 2 h: fassif, second solution pH 6.5, 2 mg/mL sample, 37° C. 2 hours
Procedure: 2.0 g of sodium chloride was added in 7.0 mL of 37% of hydrochloric acid and water to make the total volume of 1 L. The pH was adjusted to exactly 1.2 with 1N sodium hydroxide or 1N hydrochloric acid. A small amount (20 mL) of this solution was taken and added in 25 μL of triton X-100 to make the total volume of 25 mL.
0.348 g sodium hydroxide, 3.438 g NaH2PO4, 6.186 g sodium chloride and water were added to make the total volume of 1 L. The pH was adjusted to exactly 6.5 with 1N sodium hydroxide or 1N hydrochloric acid. A small amount (20 mL) of this solution was taken and 41.25 mg of sodium taurocholate hydrate and 25 μL of 750 mM lecithin dissolved in ethanol was added to make the total volume of 25 mL.
The heated test sample solutions were filtered to remove undissolved compounds therein. Finally, 100 μL of the completely compound-dissolved solution was sampled and 100 μL of CH3CN was added thereto to make the test sample solution. For each analysis of the test sample solution, the solubility was measured by using liquid chromatography.

Sequence of human histamine 3 receptor (hH3R) (Q9Y5N1 whole entry): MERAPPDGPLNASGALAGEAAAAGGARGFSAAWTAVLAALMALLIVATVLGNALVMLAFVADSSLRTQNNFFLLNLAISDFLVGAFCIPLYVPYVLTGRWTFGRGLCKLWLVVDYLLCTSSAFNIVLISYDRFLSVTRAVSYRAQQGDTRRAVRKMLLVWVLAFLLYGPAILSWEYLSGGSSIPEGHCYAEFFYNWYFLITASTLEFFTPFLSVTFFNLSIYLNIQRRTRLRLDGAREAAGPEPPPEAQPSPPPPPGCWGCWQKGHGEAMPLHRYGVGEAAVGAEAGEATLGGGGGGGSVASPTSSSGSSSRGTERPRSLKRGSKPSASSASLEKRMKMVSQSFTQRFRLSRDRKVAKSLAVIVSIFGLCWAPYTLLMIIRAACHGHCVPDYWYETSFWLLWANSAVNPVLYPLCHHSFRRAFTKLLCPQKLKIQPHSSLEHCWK

| SMILES | Metabolic stability (CLh. int), Mouse [1] [µL/min/mg] | IC50 [2] [nM] | IC50 [3] [nM] | Metabolic stability (CLh. int), Human [4] [µL/min/mg] | solubility at 1 h [5] [µg/mL] | solubility at 2 h [5] [µg/mL] |
| --- | --- | --- | --- | --- | --- | --- |
| Clc1cnc2nc(N3C[C@@H]4C[C@H]3CN4)c3nncn3c2c1 [Compound 77, 4-((1S,4S)-2,5-diazabicyclo[2.2.1]heptan-2-yl)-8-chloropyrido[2,3-e][1,2,4]triazolo[4,3-a]pyrazine] | 320 | 490 | > 100000 | 1330 | – | – |
| CN1CCN(c2nc3nc(C#N)c(Cl)cc3n3cnnc23)CC1 [Compound 21, 8-Chloro-4-(4-methylpiperazin-1-yl)pyrido[2,3-e][1,2,4]triazolo[4,3-a]pyrazin-7-carbonitrile] | 7130 | 270 | – | 4870 | – | – |
| C#Cc1cnc2nc(N3CC(NC)C3)c3nncn3c2c1 [Compound 54, 1-(8-Ethynylpyrido[2,3-e][1,2,4]triazolo[4,3-a]pyrazin-4-yl)-N-methylazetidin-3-amine] | 680 | 200 | > 100000 | 1160 | – | – |
| CNC1CN(c2nc3ncc(Br)c(C)c3n3cnnc23)C1 [Compound 65, 1-(8-Bromo-9-methylpyrido[2,3-e][1,2,4]triazolo[4,3-a]pyrazin-4-yl)-N-methylazetidin-3-amine] | 6490 | 730 | > 100000 | 3210 | – | – |
| CN1C[C@@H]2C[C@H]1CN2c1nc2ncc(Cl)cc2n2cnnc12 [Compound 78, 8-Chloro-4-((1S,4S)-5-methyl-2,5-diazabicyclo[2.2.1]heptan-2-yl)pyrido[2,3-e][1,2,4]triazolo[4,3-a]pyrazine] | 1460 | 430 | > 100000 | 2360 | – | – |
| Clc1cc2c(nc1Cl)nc(N1CCNCC1)c1nncn12 [Compound 62, 7,8-Dichloro-4-(piperazin-1-yl)pyrido[2,3-e][1,2,4]triazolo[4,3-a]pyrazine] | 7980 | 510 | > 100000 | 4170 | – | – |
| CN1CCN(c2nc3ncc(C(F)(F)F)cc3n3cnnc23)CC1 [Compound 53, 4-(4-Methylpiperazin-1-yl)-8-(trifluoromethyl)pyrido[2,3-e][1,2,4]triazolo[4,3-a]pyrazine] | 3380 | 280 | – | 2340 | – | – |
| CN1CCN(c2nc3ncc(Br)cc3n3cnnc23)CC1 [Compound 12, 8-Bromo-4-(4-methylpiperazin-1-yl)pyrido[2,3-e][1,2,4]triazolo[4,3-a]pyrazine] | 14420 | 67 | – | 3730 | 1930 (≈ 5.54 mM) | 679 (≈ 1.95 mM) |
| Cn1cc2c(n1)c(N1CCNCC1)nc1ncc(Cl)cc12 [Compound 45, 8-Chloro-2-methyl-4-(piperazin-1-yl)-2H-pyrazolo[3,4-c][1,8]naphthylidine] | 12990 | – | > 100000 | 3260 | – | – |
| CNC1CN(c2nc3nc(Cl)c(Cl)cc3n3cnnc23)C1 [Compound 27, 1-(7,8-Dichloropyrido[2,3-e][1,2,4]triazolo[4,3-a]pyrazin-4-yl)-N-methylazetidin-3-amine] | 7270 | – | > 100000 | 1240 | – | – |

Further lines, results first:

| Metabolic stability (CLh. int), Mouse [1] [µL/min/mg] | IC50 [2] [nM] | IC50 [3] [nM] | Metabolic stability (CLh. int), Human [4] [µL/min/mg] | solubility at 1 h [5] [µg/mL] | solubility at 2 h [5] [µg/mL] | SMILES |
| --- | --- | --- | --- | --- | --- | --- |
| 1230 | 890 | > 100000 | 1320 | – | – | CNC1CN(c2nc3ncc(OC(F)F)cc3n3cnnc23)C1 [Compound 59, 1-(8-(Difluoromethoxy)pyrido[2,3-e][1,2,4]triazolo[4,3-a]pyrazin-4-yl)-N-methylazetidin-3-amine] |
| 12740 | 210 | > 100000 | 2800 | – | – | CNC1CN(c2nc3ncc(OC)cc3n3cnnc23)C1 [Compound 58, 1-(8-Methoxypyrido[2,3-e][1,2,4]triazolo[4,3-a]pyrazin-4-yl)-N-methylazetidin-3-amine] |
| 6740 | 220 | > 100000 | 2450 | – | – | N#Cc1cnc2nc(N3CCNCC3)c3nncn3c2c1 [Compound 26, 4-(piperazin-1-yl)pyrido[2,3-e][1,2,4]triazolo[4,3-a]pyrazin-8-carbonitrile] |
| – | 240 | > 100000 | – | 1940 (≈ 6.7 mM) | 960 (≈ 3.31 mM) | CNC1CN(c2nc3ccc(Cl)nc3n3cnnc23)C1 [Compound 116, 1-(2-chloropyrido[3,2-e][1,2,4]triazolo[4,3-a]pyrazin-6-yl)-N-methylazetidin-3-amine] |
| 6780 | – | > 100000 | 1990 | – | – | CN(O)C1CN(c2nc3ncc(Br)cc3n3cnnc23)C1 [Compound 102, N-(1-(8-bromopyrido[2,3-e][1,2,4]triazolo[4,3-a]pyrazin-4-yl)azetidin-3-yl)-N-methylhydroxylamine] |
| 10710 | 360 | > 100000 | 3190 | – | – | CNC1CN(c2nc3ncc(Br)cc3n3ccnc23)C1 [Compound 89, 1-(8-Bromoimidazo[1,2-a]pyrido[2,3-e]pyrazin-4-yl)-N-methylazetidin-3-amine] |
| 14900 | – | > 100000 | 7180 | – | – | CN1CCN(c2nc3ncc(Cl)cc3c3nc(C4CC4)nn23)CC1 [Compound 38, 9-Chloro-2-cyclopropyl-5-(4-methylpiperazin-1-yl)pyrido[3,2-e][1,2,4]triazolo[1,5-c]pyrimidine] |
| 3070 | 238 | > 100000 | 2710 | – | – | CN1CCN(c2nc3ncc(C#N)cc3n3cnnc23)CC1 [Compound 13, 4-(4-Methylpiperazin-1-yl)pyrido[2,3-e][1,2,4]triazolo[4,3-a]pyrazin-8-carbonitrile] |
| 17130 | 177 | > 100000 | 5880 | – | – | CN1CCN(c2nc3nc(Cl)c(Cl)cc3n3cnnc23)CC1 [Compound 17, 7,8-Dichloro-4-(4-methylpiperazin-1-yl)pyrido[2,3-e][1,2,4]triazolo[4,3-a]pyrazine] |
| 5090 | 130 | > 100000 | 2840 | – | – | Clc1cnc2nc(N3CCNCC3)n3nc(C4CC4)nc3c2c1 [Compound 39, 9-Chloro-2-cyclopropyl-5-(piperazin-1-yl)pyrido[3,2-e][1,2,4]triazolo[1,5-c]pyrimidine] |
